# According to patent US11324216B2, “Methods for controlling root parasitic weeds: inhibitors of seed germination in Striga” (King Abdullah University of Science and Technology, priority 2017, dated 2022):
# Like-named read-outs stand apart in the source and are kept apart here.
# How the values were obtained:
# [1] = target: T1, ShHTL7 (Striga hermonthica, UniProt A0A0M3PNA2); conditions: read-out: Kd of ShHTL7 and GR24
# [2] = target: T1, ShHTL7; conditions: A. thaliana line expressing ShHTL7; cited from earlier work
# [3] = target: T2, AtD14 (Arabidopsis thaliana, UniProt Q9SQR3); test: Intrinsic Triton X-100 fluorescence binding assay; parameters: species or system A. thaliana; conditions: AtD14 concentrations up to 10 μM
# T2 construct: made in house
# T2 sequence (Q9SQR3 1-267): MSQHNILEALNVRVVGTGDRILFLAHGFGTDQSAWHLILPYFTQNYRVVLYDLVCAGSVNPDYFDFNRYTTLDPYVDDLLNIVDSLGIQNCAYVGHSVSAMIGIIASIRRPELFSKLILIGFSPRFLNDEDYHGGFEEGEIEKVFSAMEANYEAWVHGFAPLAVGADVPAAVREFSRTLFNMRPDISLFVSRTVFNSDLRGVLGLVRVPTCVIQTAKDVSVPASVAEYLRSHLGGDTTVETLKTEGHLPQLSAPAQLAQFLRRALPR
# Procedure: (§1) Since Triton X-100 has an excitation and emission wavelength of 275 nm and 302 nm, fluorescence was measured at the corresponding wavelengths using SpectraMax i3 (Molecular Devices). […] Data were normalized to the background fluorescence from the protein and values obtained in absence of proteins were subtracted, to determine changes in Triton X-100 fluorescence intensity. Kd values were determined by plotting changes in Triton X-100 fluorescence intensity against the concentration of the protein, using the single binding site model implemented in Graph pad (PRISM 6).
# [4] = target: T2, AtD14; test: Yoshimulactone Green (YLG) hydrolysis analysis; format: biochemical, A. thaliana
# Procedure: (§2) For measuring the hydrolysis of YLG in vitro, 10 μg of purified ShHTL7, AtD14 and OsD14 in a reaction buffer (1×PBS) containing 0.1% dimethyl sulfoxide (DMSO) in a total volume of 100 μL in 96-well black plate (Greiner) were used. To measure the fluorescent intensity, SpectraMax i3 (Molecular Devices) with an excitation wavelength of 480 nm and a detection wavelength of 520 nm were used. […] Proteins were pre-incubated with Tritone X-100 for 30 min, followed by incubation with 1 μM YLG (Tokyo Chemical Industry Co. Ltd., product number E1238) for 60 min. Fluorescence values measured in the void control were subtracted from those obtained in the presence of protein. Curves and IC50 values were plotted using Graph pad (PRISM 6) four-parameter logistic curve.
# [5] = target: T1, ShHTL7; test: Differential static light scattering (DSLS), aggregation temperature; format: binding; conditions: following pre-incubation; varying Triton concentrations
# Procedure: The specific aggregation temperature, Tagg, was determined using DSLS on the Stargazer system (Harbinger Biotechnology and Engineering Corporation, Markham, Canada). For this purpose, purified protein (1 mg/mL) was overlaid with mineral oil in a clear bottom 384-well black plate (Corning), and temperature was increased from 20 to 95° C. with a ratio of 1° C./min. A CCD camera was used to detect light scattering every 0.5° C. in the presence or absence of varying concentrations of Triton X-100, unraveling X-100 concentration-dependent changes in aggregation temperature (ShHTL7 ΔTagg). Data were normalized, and ΔTagg was plotted against the Triton X-100 concentration. Resulting data were plotted to determine the change in Tagg of ShHTL7 upon binding to Triton X-100 using Graph pad (PRISM 6).
# [6] = target: T3, OsD14 (Oryza sativa subsp. japonica, UniProt Q10QA5); test: Intrinsic Triton X-100 fluorescence binding assay; parameters: species or system rice; conditions: OsD14 concentrations up to 10 μM
# T3 construct: made in house
# T3 sequence (Q10QA5 1-318): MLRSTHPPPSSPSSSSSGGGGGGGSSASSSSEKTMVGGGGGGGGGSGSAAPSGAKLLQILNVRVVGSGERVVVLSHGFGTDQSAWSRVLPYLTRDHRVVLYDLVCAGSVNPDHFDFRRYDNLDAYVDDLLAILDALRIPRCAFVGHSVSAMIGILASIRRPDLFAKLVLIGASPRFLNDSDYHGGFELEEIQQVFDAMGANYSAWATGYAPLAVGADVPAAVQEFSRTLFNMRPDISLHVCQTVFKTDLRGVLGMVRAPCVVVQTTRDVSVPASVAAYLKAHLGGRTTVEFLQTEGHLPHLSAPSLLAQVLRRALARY
# Procedure: as §1
# [7] = test system: rice seeds cv. Nipponbare; format: in vivo; conditions: Striga germination vs rice growth
# Procedure: The rice seeds cv. Nipponbare were surface-sterilized using 50 ml (2.5%) sodium hypochlorite with 0.4% of Tween-20 for 15 min. After six subsequent washing steps with sterilized water, the rice seeds were kept in water at 30° C. for overnight imbibition. About 2 ml of dilutions of Triton X-100 at 15.4 μM, 1.54 μM in sterile MilliQ water (control) was added in 24-well plates with six replications. One sterilized rice seed was put in each well and allowed to germinate for 48 h at 30° C. The germinated (radicle emergence) and non-germinated seeds were recorded and germination percentage was calculated. Then same seeds were allowed to grow under light in growth cabinet for another one week. The length of one week old seedlings was measured with a roller and averaged.
# [8] = target: T1, ShHTL7; test: Yoshimulactone Green (YLG) hydrolysis analysis; format: biochemical; conditions: for IC50: pre-incubation 30 min, 1 μM YLG 60 min
# Procedure: For measuring the hydrolysis of YLG in vitro, 10 μg of purified ShHTL7, AtD14 and OsD14 in a reaction buffer (1×PBS) containing 0.1% dimethyl sulfoxide (DMSO) in a total volume of 100 μL in 96-well black plate (Greiner) were used. To measure the fluorescent intensity, SpectraMax i3 (Molecular Devices) with an excitation wavelength of 480 nm and a detection wavelength of 520 nm were used. Purified proteins were mixed with Triton X-100, using serial dilutions with concentrations ranging from 5 μM to 4.87 nM. Proteins were pre-incubated with Tritone X-100 for 30 min, followed by incubation with 1 μM YLG (Tokyo Chemical Industry Co. Ltd., product number E1238) for 60 min. Fluorescence values measured in the void control were subtracted from those obtained in the presence of protein. Curves and IC50 values were plotted using Graph pad (PRISM 6) four-parameter logistic curve.
# [9] = target: T3, OsD14; test: Yoshimulactone Green (YLG) hydrolysis analysis; format: biochemical, rice
# Procedure: as §2
# [10] = test system: Striga hermonthica seeds; test: Striga hermonthica germination assay (GR24-induced); format: in vivo
# Procedure: Striga hermonthica germination bioassays were carried out using Striga seeds collected from a Sorghum bicolor field in Sudan. About 50-100 dry Striga washed and sterilized seeds were distributed on a 9-mm diameter glass fiber filter paper discs (Sartorius, Goettingen Germany). Discs were then placed in 9-cm diameter petri-dishes (12 discs per petri-dish) on filter paper (Whatman, Maidstone, UK) moistened with 3 mL sterilized water. The petri-dishes were sealed with parafilm, wrapped with aluminum foil and incubated in growth chambers at 30° C. for 10 days for preconditioning. On the 11th day, discs were air dried in laminar flow cabinet and transferred to 9-cm petri-dishes (four discs in each plate), which contained 9-mm diameter glass fiber filter paper rings, moistened with 900 μL sterile MilliQ water. The pre-conditioned Striga seeds were treated with Triton X-100 at concentrations of 15.4 μM (0.001%) and 1.54 μM (0.0001%) along with GR24 at 1 nM, 0.5 nM, 0.25 nM and 0.125 nM respectively. Triton X-100/GR24 mixtures were applied (50 μl per disc) in four replicates. Corresponding volumes of GR24 and sterile MilliQ water were included as positive and negative control, respectively. The petri-dishes were sealed with parafilm, enfolded with aluminum foil and incubated for 48 h at 30° C. The germinated (seeds with radicle emerging through the seed coat) and non-germinated Striga seeds were recorded under a binocular and germination percentage was calculated.
# [11] = target: T1, ShHTL7; test: Intrinsic Triton X-100 fluorescence binding assay
# Procedure: cDNA fragments, encoding the S. hermonthica ShHTL7 or the mutated version S95C (in which the serine in the active triad was changed to cysteine) flanked with BamHI and XhoI restriction sites, were cloned into the pGEX-6P1 (GE Healthcare) expression vector that enables the expression of GST fusion protein, using the corresponding restriction sites, as shown in Table 1 below. The plasmid obtained was then transformed into BL21 (DE3) E. coli cells. Cells were grown in LB medium at 37° C., and protein expression was induced at OD 0.6 at λ=600 nm by adding 150 μM isopropyl β-D-1-thiogalactopyranoside (IPTG). After induction, cultures were grown at 16° C. overnight under shaking. […]
# as §1, with “Purified proteins (at concentrations of […] to 5 μM) were incubated with 1.54 μM of Triton X-100 for 2 h. Since” for “Since”
# [12] = test system: ShHTL7 L143Y mutant; test: Yoshimulactone Green (YLG) hydrolysis analysis; format: biochemical, Striga hermonthica
# T1 sequence (A0A0M3PNA2 entry or part of it): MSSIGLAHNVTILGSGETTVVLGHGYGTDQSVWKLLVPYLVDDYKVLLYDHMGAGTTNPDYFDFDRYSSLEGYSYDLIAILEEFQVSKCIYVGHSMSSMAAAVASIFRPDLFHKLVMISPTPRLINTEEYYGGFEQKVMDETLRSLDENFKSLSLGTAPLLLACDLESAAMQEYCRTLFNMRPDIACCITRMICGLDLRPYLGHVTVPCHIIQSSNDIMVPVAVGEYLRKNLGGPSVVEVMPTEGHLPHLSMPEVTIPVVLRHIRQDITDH
compound,measurement,setting,value
CC1=C[C@H](O/C=C2/C(=O)O[C@@H]3c4ccccc4C[C@H]23)OC1=O [GR24],Kd,[1],440 nM
same,GR24 concentration triggering germination,[2],picomolar concentrations
polyethylene glycol tert-octylphenyl ether [Triton X-100],Change in Triton fluorescence with AtD14,[3],No change in Triton fluorescence
same,Inhibition of YLG hydrolysis by AtD14,[4]; 10 μM Triton,around 10%
same,Effect on YLG hydrolysis by AtD14,[4]; up to 0.5 μM Triton,did not affect
same,Aggregation temperature (Tagg) of ShHTL7,[5],aggregation temperature increases in a Triton concentration-dependent manner
same,Change in Triton fluorescence with OsD14,[6],No change in Triton fluorescence
same,Triton concentrations inhibiting S. hermonthica germination relative to concentrations that affect rice growth,[7],five orders of magnitude lower
same,IC50,[8],470 ± 110 nM
same,Inhibition of YLG hydrolysis by OsD14,[9]; 10 μM Triton,around 10%
same,Effect on YLG hydrolysis by OsD14,[9]; up to 0.5 μM Triton,did not affect
same,Inhibition of GR24-induced S. hermonthica germination,[10]; 1.54 μM Triton X-100,significantly inhibiting
same,Inhibition of GR24-induced S. hermonthica germination,[10]; 15.4 μM Triton X-100,significantly inhibiting
same,Inhibition of S. hermonthica germination,[10]; maximum inhibition,up to 90%
same,Affinity of Triton for ShHTL7 relative to GR24,[11]; Kd 31 nM vs Kd 440 nM,about ten times higher affinity
same,Kd,"[11]; following pre-incubation 2 h or more, intrinsic Triton fluorescence, read-out: Kd between Triton and ShHTL7",31 nM
same,Inhibition of YLG hydrolysis by ShHTL7 L143Y mutant,[12],failed to inhibit
CC(C)(C)CC(C)(C)c1ccc(OCCOCCO)cc1 [4-ter-octylphenol diethoxylate],IC50,[8],7500 ± 2100 nM
CC(C)(C)CC(C)(C)c1ccc(OCCO)cc1 [4-ter-octylphenol Monoethoxylate],IC50,[8],9200 ± 3200 nM
"CC(C)(C)CC(C)(C)c1ccc(OCC(=O)O)cc1 [2-[4-(2,4,4-trimethylpentan-2-yl)phenoxy]acetic acid]",Inhibitory effect on ShHTL7 catalyzed hydrolysis of YLG,[8]; in words,clear inhibitory effect
same,IC50,[8],1500 ± 410 nM
